In PubChem BioAssay AID504685 (Sanford-Burnham Center for Chemical Genomics, 2011):
pIC50: −log10 of the molar value. The source made the active and inactive calls. The rule behind the calls is not given here.

These compounds were tested against Bcl-2-related protein A1 (Mus musculus) (UniProt Q07440) (assay: off-target activity on mouse Bfl-1 – biochemical, counter-screen for UBC13 polyubiquitination inhibitor project, SAR follow-up (AID 504685)). Details: Bfl-1 counterscreen for UBC13 inhibitors.

| IC50 | pIC50 | SMILES |
| --- | --- | --- |
| > 100 µM (inactive) | – | O=C(C1CCN(c2ncnc3c2nc2n3CCCCC2)CC1)N1CCC(Cc2ccccc2)CC1 |
| > 100 µM (inactive) | – | O=C(C1CCN(c2ncnc3c2nc2n3CCCCC2)CC1)N1CCOCC1 |
| > 100 µM (inactive) | – | CC1CCCCN1C(=O)C1CCN(c2ncnc3c2nc2n3CCCCC2)CC1 (stereo not given) |
| – | 4.01 | Cc1ccc(OCC(O)CN2CCN(CCN3C(=O)c4cccc5cccc(c45)C3=O)CC2)c(C)c1 (stereo not given) |
| > 100 µM (inactive) | – | Cc1ccc(C)c(OCC(O)CN2CCN(CCN3C(=O)c4cccc5cccc(c45)C3=O)CC2)c1 (stereo not given) |
| > 100 µM (inactive) | – | NNC(=O)c1ccc(CN2C(=O)c3cccc4cccc2c34)cc1 |
| > 100 µM (inactive) | – | O=C(CCCn1c(=O)c2ccccc2n(Cc2ccccc2F)c1=O)NC1CCN(Cc2ccccc2)CC1 |
| > 100 µM (inactive) | – | O=C1c2cccc3cccc(c23)C(=O)N1CCN1CCN(CC(O)COc2ccc(Cl)cc2)CC1 (stereo not given) |
| > 100 µM (inactive) | – | O=C(CCCCCN1C(=O)c2ccccc2C1=O)NCc1ccco1 |
| > 100 µM (inactive) | – | COc1ccc(COCC(O)CN2CCC(CN3C(=O)c4cccc5cccc(c45)C3=O)CC2)cc1OC (stereo not given) |
| > 100 µM (inactive) | – | O=C1c2cccc3cccc(c23)C(=O)N1CCN1CCN(CC(O)COc2ccc3c(c2)OCO3)CC1 (stereo not given) |
| > 100 µM (inactive) | – | CCOC(=O)c1c(NC(=O)COc2ccccc2C#N)sc2c1CC(C)(C)NC2(C)C |
| – | 4.06 | CCOc1cccc2sc(N(CCCN(C)C)C(=O)c3ccc(S(=O)(=O)N(CC)Cc4ccccc4)cc3)nc12 |
| > 100 µM (inactive) | – | Cc1cc(C)cc(OCCNC(=O)CCCCCN2C(=O)c3ccccc3C2=O)c1 |
| > 100 µM (inactive) | – | O=C(NCC1CCN(Cc2ccc(F)cc2)CC1)C1CCCN(c2ncnc3c2nc2n3CCCCC2)C1 (stereo not given) |
| > 100 µM (inactive) | – | Cc1cc(C)c2sc(N(CCCN(C)C)C(=O)c3ccc(S(=O)(=O)N4CCc5ccccc5C4)cc3)nc2c1 |
| > 100 µM (inactive) | – | Cc1ccc2nc(N(CCCN(C)C)C(=O)c3ccc(S(=O)(=O)N4CCc5ccccc5C4)cc3)sc2c1 |
| > 100 µM (inactive) | – | Cc1ccc(-c2oc3ncnc(N)c3c2-c2ccc(C)cc2)cc1 |
| > 100 µM (inactive) | – | Cc1ccc2nc(N(CCCN(C)C)C(=O)c3ccc4c(c3)CCCC4)sc2c1 |
| > 100 µM (inactive) | – | O=C(CCCCCN1C(=O)c2ccccc2C1=O)Nc1nc(C2CC2)cs1 |
| > 100 µM (inactive) | – | CC(C)(C)c1ccc(OCC(O)CN2CCN(CCN3C(=O)c4cccc5cccc(c45)C3=O)CC2)cc1 (stereo not given) |
| – | 4.09 | CN(C)CCCN(C(=O)c1ccc(S(=O)(=O)N(C)Cc2ccccc2)cc1)c1nc2cc3c(cc2s1)OCO3 |
| > 100 µM (inactive) | – | CN1CCN(CCCNC(=O)c2ccc(/C=C3\Oc4ccccc4N(Cc4ccc(Cl)cc4)C3=O)cc2)CC1 |

| IC50 | pIC50 | SMILES |
| --- | --- | --- |
| > 100 µM (inactive) | – | CC1CCCC(C)N1CCCNC(=O)C1CCCN(c2ncnc3c2nc2n3CCCCC2)C1 (stereo not given) |
| > 100 µM (inactive) | – | CC1(C)Cc2c(sc(NC(=O)COc3ccc(Cl)cc3Cl)c2C(N)=O)C(C)(C)N1 |
| > 100 µM (inactive) | – | CCc1ccc(OCC(O)CN2CCC(CN3C(=O)c4cccc5cccc(c45)C3=O)CC2)cc1 (stereo not given) |
| > 100 µM (inactive) | – | O=C(CCCn1c(=O)c2ccccc2n(Cc2cccc([N+](=O)[O-])c2)c1=O)NC1CCN(Cc2ccccc2)CC1 |
| > 100 µM (inactive) | – | O=C(CCCn1c(=O)c2ccccc2n(Cc2ccc(Cl)cc2)c1=O)NC1CCN(Cc2ccccc2)CC1 |
| > 100 µM (inactive) | – | Cc1cccc(C)c1NC(=O)Cn1c(=O)n(CCCC(=O)NC2CCN(Cc3ccccc3)CC2)c(=O)c2ccccc21 |
| > 100 µM (inactive) | – | O=C(NCC1CCN(Cc2ccccc2F)CC1)C1CCCN(c2ncnc3c2nc2n3CCCCC2)C1 (stereo not given) |
| > 100 µM (inactive) | – | O=C(NCCCN1CCN(c2ccc(F)cc2)CC1)C1CCCN(c2ncnc3c2nc2n3CCCCC2)C1 (stereo not given) |
| > 100 µM (inactive) | – | COc1ccccc1NC(=S)NC(=O)CCCCCN1C(=O)c2ccccc2C1=O |
| > 100 µM (inactive) | – | CC1CC(C)CN(C(=O)C2CCN(c3ncnc4c3nc3n4CCCCC3)CC2)C1 (stereo not given) |
| > 100 µM (inactive) | – | Cc1[nH]c2c(Cl)c(Cl)ccc2c1CCNC(=O)CCCCCN1C(=O)c2ccccc2C1=O |
| – | 4.02 | O=C1c2cccc3cccc(c23)C(=O)N1CC1CCN(CC(O)COCc2ccc3c(c2)OCO3)CC1 (stereo not given) |
| – | 4.03 | CC(=O)c1ccccc1OCC(O)CN1CCN(CCN2C(=O)c3cccc4cccc(c34)C2=O)CC1 (stereo not given) |
| > 100 µM (inactive) | – | O=C(CCCn1c(=O)c2ccccc2n(Cc2cccc(F)c2)c1=O)NC1CCN(Cc2ccccc2)CC1 |
| > 100 µM (inactive) | – | CN(C)CCCN(C(=O)c1ccc(C(=O)c2ccccc2)cc1)c1nc2cc3c(cc2s1)OCO3 |
| – | 4.77 | CN(C)CCCn1c(SCC(=O)Nc2nc(-c3cccc(Br)c3)cs2)nc2ccccc2c1=O |
| > 100 µM (inactive) | – | COc1ccc(C)c2sc(N(CCCN(C)C)C(=O)c3ccc(S(=O)(=O)N(C)C)cc3)nc12 |
| – | 4.62 | COc1cccc2sc(N(CCCN(C)C)C(=O)c3ccc(S(=O)(=O)N4CCc5ccccc5C4)cc3)nc12 |
| > 100 µM (inactive) | – | O=C1c2cccc3cccc(c23)C(=O)N1CCN1CCN(CC(O)COc2ccc3ccccc3c2)CC1 (stereo not given) |
| > 100 µM (inactive) | – | O=C(C1CCN(c2ncnc3c2nc2n3CCCCC2)CC1)N1CCN(Cc2ccccc2)CC1 |
| > 100 µM (inactive) | – | CN(C)CCCN(C(=O)c1ccc2c(c1)CCCC2)c1nc2ccc(Cl)cc2s1 |
| > 100 µM (inactive) | – | CC(=O)Nc1ccc(OCC(O)CN2CCN(CCN3C(=O)c4cccc5cccc(c45)C3=O)CC2)cc1 (stereo not given) |
